From US20250101019A1 (Insilico Medicine IP Limited, priority 2022, published 2025)

How the values were obtained:
ENPP1 [1] = target: T1, ENPP1 (Homo sapiens (Human), UniProt P22413); test: cGAMP-Glo enzymatic assay (2′3′-cGAMP substrate, AMP-Glo readout); type: biochemical; conditions: substrate 2′3′-cGAMP; 25° C. for 60 min; 50 mM Tris pH 8.8
Description: (§1) Example A: Enzymatic Assay
(§2) • 1. Diluted compounds in DMSO by hand for 11 points, 3 folds dilution. Then transferred 0.02 μL compounds to 384 assay plate by ECHO. • 2. Added 2 μL specified concentration of ENPP1 to 384 assay plate. Centrifuged 1000 RPM for 1 min. • 3. Added 2 μL specified concentration of ATP to the assay plate. Centrifuged 1000 RPM for 1 min. • 4. Incubated at 25° C. for 60 min. • 5. Added 4 μL AMP-Glo Reagent to the assay plates. • 6. Centrifuged 1000 RPM for 1 min, incubate at 25° C. for 1 hours. • 7. Added 8 μL Kinase Detection Reagent to the assay plates. • 8. Centrifuged 1000 RPM for 1 min, incubated at 25° C. for 1 hours. The final assay reaction mixture contained a buffer of 50 mM Tris pH 8.8, 250 mM NaCl and 0.1% BSA • 9. Read on Envision for US LUM as RLU. • 10. Analyzed the raw data using the equation (V. Data analysis). cGAMP-Glo Assay: • 1. Diluted compounds in DMSO by hand for 11 points, 3 folds dilution. Then transferred 0.02 μL compounds to 384 assay plate by ECHO. • 2. Added 2 μL specified concentration of ENPP1 to 384 assay plate, centrifuged 1000 RPM for 1 min. • 3. Added 2 μL specified concentration of 2′3′-cGAMP to the assay plate, centrifuged 1000 RPM for 1 min. • 4. Incubated at 25° C. for 60 min. • 5. Added 4 μL AMP-Glo Reagent to the assay plates. • 6. Centrifuged 1000 RPM for 1 min, incubated at 25° C. for 1 hours. • 7. Added 8 μL Kinase Detection Reagent to the assay plates. • 8. Centrifuged 1000 RPM for 1 min, incubate at 25° C. for 1 hours. The final assay reaction mixture contained a buffer of 50 mM Tris pH 8.8, 250 mM NaCl and 0.1% BSA • 9. Read on Envision for US LUM as RLU. • 10. Analyzed the raw data using the equation (V. Data analysis).

ENPP1 [2] = target: T1, ENPP1; test: ATP-Glo enzymatic assay (ATP substrate, AMP-Glo readout); type: biochemical; conditions: 25° C. for 60 min, 50 mM Tris pH 8.8
Description: as §1, §2

T1 sequence (P22413 whole entry, species assumed): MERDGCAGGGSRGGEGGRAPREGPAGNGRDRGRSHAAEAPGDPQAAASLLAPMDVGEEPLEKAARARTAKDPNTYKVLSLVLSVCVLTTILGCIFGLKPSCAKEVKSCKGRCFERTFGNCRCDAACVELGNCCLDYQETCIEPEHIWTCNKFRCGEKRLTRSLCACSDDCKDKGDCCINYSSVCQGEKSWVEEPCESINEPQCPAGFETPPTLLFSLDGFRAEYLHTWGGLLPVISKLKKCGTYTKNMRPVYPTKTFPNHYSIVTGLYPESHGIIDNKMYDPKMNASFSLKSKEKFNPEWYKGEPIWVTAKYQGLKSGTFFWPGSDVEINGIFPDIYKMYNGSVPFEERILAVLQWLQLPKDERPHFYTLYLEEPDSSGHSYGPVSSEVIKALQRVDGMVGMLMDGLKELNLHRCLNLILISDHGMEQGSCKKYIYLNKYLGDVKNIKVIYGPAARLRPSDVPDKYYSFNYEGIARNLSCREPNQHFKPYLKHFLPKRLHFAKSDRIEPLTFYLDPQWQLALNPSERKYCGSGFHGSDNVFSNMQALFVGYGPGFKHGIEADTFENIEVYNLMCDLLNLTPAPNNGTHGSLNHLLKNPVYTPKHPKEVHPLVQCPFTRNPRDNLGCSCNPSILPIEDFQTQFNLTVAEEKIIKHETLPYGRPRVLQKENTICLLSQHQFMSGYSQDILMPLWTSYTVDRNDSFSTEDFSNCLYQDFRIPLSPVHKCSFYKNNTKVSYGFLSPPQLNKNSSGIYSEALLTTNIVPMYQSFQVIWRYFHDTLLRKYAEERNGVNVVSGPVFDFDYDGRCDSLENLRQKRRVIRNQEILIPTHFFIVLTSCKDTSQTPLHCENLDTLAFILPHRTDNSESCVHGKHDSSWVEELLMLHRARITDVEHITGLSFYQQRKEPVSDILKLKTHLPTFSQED

Compound	IC50 (ENPP1 [1])	IC50 (ENPP1 [2])
Cc1ncc2nc(C)n(Cc3ccc(S(N)(=O)=O)cc3)c2c1-c1ccccc1 [Example 31, 4-((2,6-dimethyl-7-phenyl-1H-imidazo[4,5-c]pyridin-1-yl)methyl)benzene sulfonamide]	< 1 nM	< 1 nM
Cc1ncc(-c2ccccc2)c2c1nc(C)n2Cc1ccc(S(N)(=O)=O)cc1 [Example 32, 4-((2,4-dimethyl-7-phenyl-1H-imidazo[4,5-c]pyridin-1-yl)methyl)benzene sulfonamide]	< 1 nM	< 1 nM
Cc1nc2cnc(OC(F)F)c(-c3ccccc3)c2n1Cc1ccc(S(N)(=O)=O)cc1 [Example 33, 4-((6-(difluoromethoxy)-2-methyl-7-phenyl-1H-imidazo[4,5-c]pyridin-1-yl)methyl)benzenesulfonamide]	< 1 nM	< 1 nM
Cc1ncc2nc(C(F)(F)F)n(Cc3c(F)cc(S(N)(=O)=O)cc3F)c2c1-c1ccccc1 [Example 34, 3,5-difluoro-4-((6-methyl-7-phenyl-2-(trifluoromethyl)-1H-imidazo[4,5-c]pyridin-1-yl)methyl)benzenesulfonamide]	< 1 nM	< 1 nM
COc1ncc2nc(C)n(C(C)c3ccc(S(N)(=O)=O)cc3)c2c1-c1ccccc1 (stereo not shown) [Example 35, 4-(1-(6-methoxy-2-methyl-7-phenyl-1H-imidazo[4,5-c]pyridin-1-yl)ethyl) benzenesulfonamide]	1 to 10 nM	1 to 10 nM
COc1ncc2nc(C)n(Cc3ccc(S(N)(=O)=O)c(F)c3)c2c1-c1ccccc1 [Example 36, 2-fluoro-4-((6-methoxy-2-methyl-7-phenyl-1H-imidazo[4,5-c]pyridin-1-yl)methyl)benzenesulfonamide]	< 1 nM	< 1 nM
Cc1ncc2nc(C)n(Cc3ccc(OS(N)(=O)=O)cc3)c2c1-c1ccccc1 [Example 37]	< 1 nM	< 1 nM
Cc1ncc2nc(C(F)F)n(Cc3c(F)cc(S(N)(=O)=O)cc3F)c2c1-c1ccccc1 [Example 38, 4-((2-(difluoromethyl)-6-methyl-7-phenyl-1H-imidazo[4,5-c]pyridin-1-yl)methyl)-3,5-difluorobenzenesulfonamide]	< 1 nM	< 1 nM
Cc1ncc2nc(C3CC3)n(Cc3c(F)cc(S(N)(=O)=O)cc3F)c2c1-c1ccccc1 [Example 39, 4-((2-cyclopropyl-6-methyl-7-phenyl-1H-imidazo[4,5-c]pyridin-1-yl)methyl)-3,5-difluorobenzenesulfonamide]	< 1 nM	< 1 nM
Cc1nc2cncc(-c3ccccc3)c2n1Cc1ccc(S(N)(=O)=O)cc1 [Example 40, 4-((2-methyl-7-phenyl-1H-imidazo[4,5-c]pyridin-1-yl)methyl)benzene sulfonamide]	< 1 nM	< 1 nM
[2H]C([2H])([2H])c1nc2cnc(C)c(-c3ccccc3)c2n1Cc1c(F)cc(S(N)(=O)=O)cc1F [Example 42, 3,5-difluoro-4-((6-methyl-2-(methyl-d3)-7-phenyl-1H-imidazo[4,5-c]pyridin-1-yl)methyl)benzenesulfonamide]	< 1 nM	< 1 nM
Cc1nc2cncc(-c3ccccc3)c2n1Cc1c(F)cc(S(N)(=O)=O)cc1F [Example 43, 3,5-difluoro-4-((2-methyl-7-phenyl-1H-imidazo[4,5-c]pyridin-1-yl)methyl)benzenesulfonamide]	< 1 nM	< 1 nM
Cc1ncc2nc(C)n(Cc3c(F)cc(S(N)(=O)=O)cc3F)c2c1-c1ccccc1F [Example 44, 3,5-difluoro-4-((7-(2-fluorophenyl)-2,6-dimethyl-1H-imidazo[4,5-c]pyridin-1-yl)methyl)benzenesulfonamide]	< 1 nM	< 1 nM
Cc1ncc2nc(C)n(Cc3c(F)cc(S(N)(=O)=O)cc3F)c2c1-c1cccc(F)c1 [Example 45, 3,5-difluoro-4-((7-(3-fluorophenyl)-2,6-dimethyl-1H-imidazo[4,5-c]pyridin-1-yl)methyl)benzenesulfonamide]	< 1 nM	< 1 nM
Cc1ncc2nc(C)n(Cc3c(F)cc(S(N)(=O)=O)cc3F)c2c1-c1ccc(F)cc1 [Example 46, 3,5-difluoro-4-((7-(4-fluorophenyl)-2,6-dimethyl-1H-imidazo[4,5-c]pyridin-1-yl)methyl)benzenesulfonamide]	< 1 nM	< 1 nM
Cc1ncc2nc(CF)n(Cc3c(F)cc(S(N)(=O)=O)cc3F)c2c1-c1ccccc1 [Example 47, 3,5-difluoro-4-((2-(fluoromethyl)-6-methyl-7-phenyl-1H-imidazo[4,5-c]pyridin-1-yl)methyl)benzenesulfonamide]	< 1 nM	< 1 nM
CCc1ncc2nc(C)n(Cc3c(F)cc(S(N)(=O)=O)cc3F)c2c1-c1ccccc1 [Example 48, 4-((6-ethyl-2-methyl-7-phenyl-1H-imidazo[4,5-c]pyridin-1-yl)methyl)-3,5-difluorobenzenesulfonamide]	< 1 nM	< 1 nM
Cc1ncc2nc(CN(C)C)n(Cc3c(F)cc(S(N)(=O)=O)cc3F)c2c1-c1ccccc1 [Example 49]	< 1 nM	< 1 nM
Cc1ncc2nc(CC(F)(F)F)n(Cc3c(F)cc(S(N)(=O)=O)cc3F)c2c1-c1ccccc1 [Example 50, 3,5-difluoro-4-((6-methyl-7-phenyl-2-(2,2,2-trifluoroethyl)-1H-imidazo[4,5-c]pyridin-1-yl)methyl)benzenesulfonamide]	< 1 nM	< 1 nM
Cc1ncc2nc(CC3CC3)n(Cc3c(F)cc(S(N)(=O)=O)cc3F)c2c1-c1ccccc1 [Example 51, 4-((2-(cyclopropylmethyl)-6-methyl-7-phenyl-1H-imidazo[4,5-c]pyridin-1-yl)methyl)-3,5-difluorobenzenesulfonamide]	< 1 nM	< 1 nM
Cc1ncc2nc(C)n(Cc3c(F)cc(S(N)(=O)=O)cc3F)c2c1C1CC1 [Example 52, 4-((7-cyclopropyl-2,6-dimethyl-1H-imidazo[4,5-c]pyridin-1-yl)methyl)-3,5-difluorobenzenesulfonamide]	< 1 nM	< 1 nM
Cc1ncc2nc(C3CC3)n(Cc3ccc(S(N)(=O)=O)cn3)c2c1-c1ccccc1 [Example 53, 6-((2-cyclopropyl-6-methyl-7-phenyl-1H-imidazo[4,5-c]pyridin-1-yl)methyl)pyridine-3-sulfonamide]	< 1 nM	< 1 nM
Cc1ncc2nc(C3CC3)n(Cc3ccc(S(N)(=O)=O)nc3)c2c1-c1ccccc1 [Example 54, 5-((2-cyclopropyl-6-methyl-7-phenyl-1H-imidazo[4,5-c]pyridin-1-yl)methyl)pyridine-2-sulfonamide]	< 1 nM	< 1 nM
Cc1cc(Cn2c(C3CC3)nc3cnc(C)c(-c4ccccc4)c32)ccc1S(N)(=O)=O [Example 55, 4-((2-cyclopropyl-6-methyl-7-phenyl-1H-imidazo[4,5-c]pyridin-1-yl)methyl)-2-methylbenzenesulfonamide]	< 1 nM	< 1 nM
COc1ncc2c(c1-c1ccccc1)n(Cc1c(F)cc(S(N)(=O)=O)cc1F)c(=O)n2C [Example 56, 3,5-difluoro-4-((6-methoxy-3-methyl-2-oxo-7-phenyl-2,3-dihydro-1H-imidazo[4,5-c]pyridin-1-yl)methyl)benzenesulfonamide]	< 1 nM	< 1 nM
COc1ncc2c(c1-c1ccccc1)N(Cc1c(F)cc(S(N)(=O)=O)cc1F)C(=O)C2 [Example 57, 3,5-difluoro-4-((6-methoxy-2-oxo-7-phenyl-2,3-dihydro-1H-pyrrolo[3,2-c]pyridin-1-yl)methyl)benzenesulfonamide]	< 1 nM	< 1 nM
Cc1ncc2nc(C)n(Cc3c(F)cc(S(N)(=O)=O)cc3F)c2c1C1=CCCC1 [Example 58, 4-((7-(cyclopent-1-en-1-yl)-2,6-dimethyl-1H-imidazo[4,5-c]pyridin-1-yl)methyl)-3,5-difluorobenzenesulfonamide]	< 1 nM	< 1 nM
Cc1ncc2c(c1-c1ccccc1)n(Cc1c(F)cc(S(N)(=O)=O)cc1F)c(=O)n2C [Example 59, 4-((3,6-dimethyl-2-oxo-7-phenyl-2,3-dihydro-1H-imidazo[4,5-c]pyridin-1-yl)methyl)-3,5-difluorobenzenesulfonamide]	< 1 nM	< 1 nM
Cc1ncc2nc(CN3CCCC3)n(Cc3c(F)cc(S(N)(=O)=O)cc3F)c2c1-c1ccccc1 [Example 60, 3,5-difluoro-4-((6-methyl-7-phenyl-2-(pyrrolidin-1-ylmethyl)-1H-imidazo[4,5-c]pyridin-1-yl)methyl)benzenesulfonamide]	< 1 nM	< 1 nM
